Data: ChEMBL document CHEMBL2331144, “Synthesis and anticancer activity of analogues of phenstatin, with a phenothiazine A-ring, as a new class of microtubule-targeting agents” (Bioorg Med Chem Lett, 2013)
pIC50: −log10 of the molar value.

Test: Inhibition of sheep brain tubulin polymerization using DAPI by fluorimetry
Design: species or system Ovis aries

## C=C(c1ccc(OC)c(O)c1)c1cc(OC)c(OC)c(OC)c1
  pIC50: 5.82
